“Also recorded” adds a separate entry of the source.
What was measured:
Assay type in all cases: cell-based
[1] = system: Wnt responsive luciferase reporter (TCF4-Luc); test: TCF4-Luc luciferase reporter assay in UMR 106 cells
β-catenin = β-catenin stabilization, Western blot of UMR 106 cell fractions; conditions: UMR 106 cells; inhibitor 30 minutes before 10^−7 M PTH (1-84) for 1 hour; cytosolic fraction
LRP6/Axin binding = test: Axin-LRP6 binding immunoprecipitation assay; conditions: for inhibition of PTH-induced binding of Axin to LRP6: pre-treatment 30 minutes, then PTH (1-84) for 1 hour; for Axin-LRP6 binding: HEK 293 cells cotransfected with LRP6, Axin and GSK3β, ligand for 1 hour
Axin = Axin protein levels; conditions: cells overexpressing LRP6
Text: Binding of Axin to phosphorylated LRP6 leads to rapid degradation. Then inhibition of Axin/LRP6 binding should […] degradation of Axin. Indeed, Axin degradation is reduced by both inhibitors (data not shown). […] PKA and PKC also were examined to determine whether they regulate PTH-induced PTH1R/LRP6 complex formation. […] Apparently, the receptor complex formation is independent of activation of PKA and PKC. Instead, it seems that activation of G protein-mediated PKA and PKC signaling is in parallel with the recruitment of LRP5/6 in PTH signaling. PKA and PKC activity is required for LRP5/6 phosphorylation and Axin/LRP6 binding.
Wnts induce binding of Axin to phosphorylated LRP6, and the membrane-bound Axin undergoes rapid protein dephosphorylation and degradation, which eventually leads to β-catenin stabilization Willert et al., 1999; Yamamoto et al., 1999).

Axin-LRP6 binding (LRP6/Axin binding) | Compound | inhibition of PTH-stimulated TCF4-luciferase reporter activity [1] | inhibition of PTH-induced β-catenin stabilization (β-catenin) | inhibition of PTH-induced binding of Axin to LRP6 (LRP6/Axin binding) | Axin protein levels (Axin) | TCF luciferase activity ([1]; 5×10^−7 M of indicated PTH ligands for 12 hours)
– | O=S(=O)(NCCNC/C=C/c1ccc(Br)cc1)c1cccc2cnccc12 [H89] | inhibited activity from a TCF4-luciferase reporter | inhibit PTH-induced β-catenin stabilization | inhibit the binding of Axin with LRP6 | – | –
– | Calphostin C | inhibited activity from a TCF4-luciferase reporter | less effective; also recorded: inhibit PTH-induced β-catenin stabilization | much weaker; also recorded: inhibit the binding of Axin with LRP6 | – | –
did not | PTH 79-84: C-terminal PTH ligand as printed; possibly misprint of 39-84 (TKAKSQ; Parathyroid hormone; UniProt P01270 110-115, looked up, fragment) | – | – | – | did not affect Axin level | –
stimulated Axin-LRP6 binding | PTHrP 1-40: PTHrP fragment 1-40 tested beside PTH ligands | – | – | – | further downregulated Axin protein levels | significantly elevated

Source: patent publication US8008074B2, “Compositions and methods for improving bone mass through modulation of receptors of PTH and fragments thereof” (The UAB Research Foundation, priority 2006, dated 2011)
